# From ChEMBL document CHEMBL4130457, “Discovery of AZD-2098 and AZD-1678, Two Potent and Bioavailable CCR4 Receptor Antagonists” (ACS Med Chem Lett, 2017)
# Calls of active or inactive are those of the source. The calls are words filed in the database; no cut-off is given here.
# Legend:
# [1] = Oral bioavailability in mouse; type: ADME, organism-based; details: in vivo
# [2] = Antagonist activity at rat CCR4
# [3] = biological target: T1, C-X-C chemokine receptor type 1 (Homo sapiens) (UniProt P25024); test: Antagonist activity at CXCR1 (unknown origin) at 10 uM; type: functional
# T1 sequence (whole entry): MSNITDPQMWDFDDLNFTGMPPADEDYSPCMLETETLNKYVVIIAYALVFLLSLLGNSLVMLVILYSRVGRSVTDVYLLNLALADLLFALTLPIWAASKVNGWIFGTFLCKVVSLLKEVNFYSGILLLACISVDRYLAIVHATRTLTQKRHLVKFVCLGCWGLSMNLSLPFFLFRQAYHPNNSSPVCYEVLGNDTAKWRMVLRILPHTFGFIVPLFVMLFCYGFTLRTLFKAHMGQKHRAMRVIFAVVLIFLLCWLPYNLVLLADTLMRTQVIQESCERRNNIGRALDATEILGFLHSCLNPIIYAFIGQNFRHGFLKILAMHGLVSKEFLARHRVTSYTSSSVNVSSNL
# [4] = Lipophilicity, log D of the compound; type: physicochemical; details: octanol/water
# [5] = biological target: C-C chemokine receptor type 8 (Homo sapiens) (UniProt P51685); test: Antagonist activity at CCR8 (unknown origin) at 10 uM; type: functional
# Chain of C-C chemokine receptor type 8 (Homo sapiens) (P51685 whole entry): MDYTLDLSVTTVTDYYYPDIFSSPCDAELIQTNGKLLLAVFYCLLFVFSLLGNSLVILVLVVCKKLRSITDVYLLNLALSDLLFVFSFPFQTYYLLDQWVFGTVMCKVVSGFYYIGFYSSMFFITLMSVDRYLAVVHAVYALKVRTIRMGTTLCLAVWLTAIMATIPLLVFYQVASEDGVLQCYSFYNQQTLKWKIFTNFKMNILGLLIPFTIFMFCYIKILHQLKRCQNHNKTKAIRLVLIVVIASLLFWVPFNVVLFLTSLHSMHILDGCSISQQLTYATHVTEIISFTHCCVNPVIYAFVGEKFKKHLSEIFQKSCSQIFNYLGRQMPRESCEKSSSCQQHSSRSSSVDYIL
# [6] = biological target: T2, C-X-C chemokine receptor type 2 (Homo sapiens) (UniProt P25025); test: Antagonist activity at CXCR2 (unknown origin) at 10 uM; type: functional
# T2 sequence (whole entry): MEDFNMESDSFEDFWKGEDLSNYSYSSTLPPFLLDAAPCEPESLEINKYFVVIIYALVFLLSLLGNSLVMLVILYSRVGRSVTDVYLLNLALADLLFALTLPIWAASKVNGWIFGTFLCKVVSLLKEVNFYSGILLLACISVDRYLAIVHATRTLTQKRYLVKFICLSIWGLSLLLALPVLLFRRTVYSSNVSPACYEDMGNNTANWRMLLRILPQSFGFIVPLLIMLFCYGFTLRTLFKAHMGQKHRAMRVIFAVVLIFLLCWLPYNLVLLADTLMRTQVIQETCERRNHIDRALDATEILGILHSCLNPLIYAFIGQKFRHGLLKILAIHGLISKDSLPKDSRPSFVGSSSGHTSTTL
# [7] = Volume of distribution at steady state in mouse; type: ADME, organism-based; details: in vivo, read-out: Vdss
# [8] = Solubility of the compound; type: physicochemical
# [9] = Volume of distribution at steady state in rat; type: ADME, organism-based; details: in vivo, read-out: Vdss
# [10] = biological target: T3, C-C chemokine receptor type 7 (Homo sapiens) (UniProt P32248); test: Antagonist activity at CCR7 (unknown origin) at 10 uM; type: functional
# T3 sequence (whole entry): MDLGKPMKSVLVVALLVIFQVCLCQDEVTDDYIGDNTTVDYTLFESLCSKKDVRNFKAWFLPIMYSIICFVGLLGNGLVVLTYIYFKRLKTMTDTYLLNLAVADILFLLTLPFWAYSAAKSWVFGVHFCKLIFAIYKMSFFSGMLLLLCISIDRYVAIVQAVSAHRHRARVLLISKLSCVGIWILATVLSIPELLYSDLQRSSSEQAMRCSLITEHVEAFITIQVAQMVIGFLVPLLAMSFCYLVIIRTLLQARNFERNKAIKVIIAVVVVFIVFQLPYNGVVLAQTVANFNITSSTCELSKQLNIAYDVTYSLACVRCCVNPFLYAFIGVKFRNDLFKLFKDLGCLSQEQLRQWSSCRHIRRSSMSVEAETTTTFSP
# [11] = Protein binding in human plasma; type: ADME, cell-free; details: read-out: PPB (converted)
# [12] = Protein binding in rat plasma; type: ADME, cell-free; details: read-out: PPB (converted)
# [13] = biological target: T4, C-C chemokine receptor type 4 (Mus musculus, UniProt P51680); test: Antagonist activity at mouse CCR4; type: functional
# T4 sequence (P51680 whole entry): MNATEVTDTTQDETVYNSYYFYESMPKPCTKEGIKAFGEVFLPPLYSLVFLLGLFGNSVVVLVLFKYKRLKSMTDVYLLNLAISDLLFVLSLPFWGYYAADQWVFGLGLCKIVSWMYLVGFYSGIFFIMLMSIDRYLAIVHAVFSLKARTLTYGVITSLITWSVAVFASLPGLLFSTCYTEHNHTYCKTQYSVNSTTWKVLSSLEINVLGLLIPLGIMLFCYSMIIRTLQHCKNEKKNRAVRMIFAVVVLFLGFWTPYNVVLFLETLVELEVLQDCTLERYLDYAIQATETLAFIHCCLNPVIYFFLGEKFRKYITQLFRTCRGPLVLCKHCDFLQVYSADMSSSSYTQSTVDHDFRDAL
# [14] = Protein binding in mouse plasma; type: ADME, cell-free; details: read-out: PPB (converted)
# [15] = Oral bioavailability in rat; type: ADME, organism-based; details: in vivo
# [16] = biological target: T5, C-C chemokine receptor type 1 (Homo sapiens) (UniProt P32246); test: Antagonist activity at CCR1 (unknown origin) at 10 uM; type: functional
# T5 sequence (whole entry): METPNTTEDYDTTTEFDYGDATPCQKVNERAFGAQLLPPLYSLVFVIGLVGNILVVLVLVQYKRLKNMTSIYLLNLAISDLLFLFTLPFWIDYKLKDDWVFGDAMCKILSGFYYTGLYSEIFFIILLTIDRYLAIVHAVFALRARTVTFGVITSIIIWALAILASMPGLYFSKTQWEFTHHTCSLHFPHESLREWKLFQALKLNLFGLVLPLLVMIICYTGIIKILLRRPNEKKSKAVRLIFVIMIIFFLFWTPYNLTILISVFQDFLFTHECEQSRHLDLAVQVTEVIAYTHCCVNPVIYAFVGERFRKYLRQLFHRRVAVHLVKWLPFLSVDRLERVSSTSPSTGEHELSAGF
# [17] = biological target: T6, C-C chemokine receptor type 4 (Homo sapiens, UniProt P51679); test: Antagonist activity at recombinant human CCR4 expressed in CHO-K1 cells assessed as inhibition of CCL22 induced Ca2+ mobilization after 2 hrs by FMAT based fluorescence assay; type: functional, cell-based
# T6 sequence (P51679 whole entry): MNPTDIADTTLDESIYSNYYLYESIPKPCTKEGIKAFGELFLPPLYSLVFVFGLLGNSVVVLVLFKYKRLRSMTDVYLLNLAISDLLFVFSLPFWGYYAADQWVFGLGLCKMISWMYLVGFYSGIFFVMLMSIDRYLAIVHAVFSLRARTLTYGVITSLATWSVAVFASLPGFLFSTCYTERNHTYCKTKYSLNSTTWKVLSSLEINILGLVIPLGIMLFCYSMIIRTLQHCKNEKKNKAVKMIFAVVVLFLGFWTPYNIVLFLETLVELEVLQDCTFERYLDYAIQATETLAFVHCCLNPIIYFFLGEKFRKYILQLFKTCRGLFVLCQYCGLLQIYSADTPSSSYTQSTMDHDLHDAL
# [18] = biological target: C-C chemokine receptor type 2 (Homo sapiens) (UniProt P41597); test: Antagonist activity at CCR2b (unknown origin) at 10 uM
# Chain of C-C chemokine receptor type 2 (Homo sapiens) (P41597 whole entry, looked up): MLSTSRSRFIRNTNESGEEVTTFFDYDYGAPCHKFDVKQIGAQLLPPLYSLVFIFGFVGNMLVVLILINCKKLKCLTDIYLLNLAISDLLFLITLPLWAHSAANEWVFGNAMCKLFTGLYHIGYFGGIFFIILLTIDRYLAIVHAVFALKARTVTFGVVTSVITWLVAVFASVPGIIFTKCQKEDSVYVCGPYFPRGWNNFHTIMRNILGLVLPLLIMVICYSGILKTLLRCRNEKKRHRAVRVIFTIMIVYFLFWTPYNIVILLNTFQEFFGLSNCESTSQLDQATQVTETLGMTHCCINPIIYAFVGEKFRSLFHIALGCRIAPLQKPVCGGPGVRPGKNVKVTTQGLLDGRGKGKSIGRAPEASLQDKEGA
# [19] = biological target: C-C chemokine receptor type 5 (Homo sapiens) (UniProt P51681); test: Antagonist activity at CCR5 (unknown origin) at 10 uM; type: functional
# Chain of C-C chemokine receptor type 5 (Homo sapiens) (P51681 whole entry, looked up): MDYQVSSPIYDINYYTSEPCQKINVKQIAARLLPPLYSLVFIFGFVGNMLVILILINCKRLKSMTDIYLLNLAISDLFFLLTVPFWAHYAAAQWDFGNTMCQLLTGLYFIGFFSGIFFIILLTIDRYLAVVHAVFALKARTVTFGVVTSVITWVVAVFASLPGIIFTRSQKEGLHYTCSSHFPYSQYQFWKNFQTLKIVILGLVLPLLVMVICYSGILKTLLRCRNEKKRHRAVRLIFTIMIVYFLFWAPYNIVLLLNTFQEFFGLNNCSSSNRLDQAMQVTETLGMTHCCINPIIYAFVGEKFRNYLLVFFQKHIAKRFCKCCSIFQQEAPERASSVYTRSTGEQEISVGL
# [20] = biological target: T7, C-C chemokine receptor type 4 (Canis lupus familiaris, UniProt Q8MJW8); test: Antagonist activity at dog CCR4
# T7 sequence (Q8MJW8 whole entry): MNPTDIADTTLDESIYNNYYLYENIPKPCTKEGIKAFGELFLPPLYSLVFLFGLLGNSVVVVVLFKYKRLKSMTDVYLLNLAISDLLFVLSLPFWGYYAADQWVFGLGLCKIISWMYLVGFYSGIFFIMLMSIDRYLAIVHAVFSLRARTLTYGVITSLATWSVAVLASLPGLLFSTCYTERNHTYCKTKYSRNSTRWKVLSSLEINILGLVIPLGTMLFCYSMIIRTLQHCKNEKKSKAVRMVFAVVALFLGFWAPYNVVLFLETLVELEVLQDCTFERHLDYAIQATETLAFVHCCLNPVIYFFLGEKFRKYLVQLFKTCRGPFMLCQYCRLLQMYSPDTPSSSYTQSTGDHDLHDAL
# [21] = Oral bioavailability in rat at 9 umol/kg; type: ADME, organism-based; details: in vivo
# [22] = Volume of distribution at steady state in dog at 9 umol/kg, po or 3 umol/kg, iv; type: ADME, organism-based, Canis lupus familiaris; details: in vivo, read-out: Vdss
# [23] = Clearance in rat at 9 umol/kg, po or 3 umol/kg, iv; type: ADME, organism-based; details: in vivo
# [24] = Half life in dog at 9 umol/kg, po or 3 umol/kg, iv; type: ADME, organism-based, Canis lupus familiaris; details: in vivo
# [25] = Clearance in dog at 9 umol/kg, po or 3 umol/kg, iv; type: ADME, organism-based, Canis lupus familiaris; details: in vivo
# Hepatocyte = test: Stability in human hepatocytes assessed per million cells
# [26] = Oral bioavailability in dog at 9 umol/kg; type: ADME, organism-based, Canis lupus familiaris; details: in vivo
# [27] = biological target: T6, C-C chemokine receptor type 4; test: Antagonist activity at human CCR4 expressed in HEK cells coexpressing CD4+ assessed as inhibition of CCL22 induced Ca2+ mobilization; type: functional, cell-based
# [28] = Volume of distribution at steady state in rat at 9 umol/kg, po or 3 umol/kg, iv; type: ADME, organism-based; details: in vivo, read-out: Vdss
# [29] = Half life in rat at 9 umol/kg, po or 3 umol/kg, iv; type: ADME, organism-based; details: in vivo
# [30] = biological target: T8, C-C chemokine receptor type 4 (Homo sapiens) (UniProt P51679); test: Agonist activity at CCR4 (unknown origin) up to 10 uM; type: functional
# T8 sequence (whole entry): T6 sequence (P51679 whole entry)
# [31] = Lipophilicity, log P of the compound; type: physicochemical; details: octanol/water
pIC50 [2],Activity [3],logD [4],Activity [5],Activity [6],solubility [8],Activity [10],fraction unbound [11],IC50 [13],Activity [16],IC50 [17],Activity [18],Activity [19],SMILES,other results
8.3,inactive,1.1,inactive,inactive,340 µg/mL,inactive,< 0.001,5.01 nM,inactive,63.1 nM,inactive,inactive,COc1nc(Br)cnc1NS(=O)(=O)c1ccc(Cl)s1,bioavailability [1]: 86%; Vd [7]: 0.1 L/kg; Vd [9]: 0.1 L/kg; fraction unbound [12]: 0.0015; fraction unbound [14]: 0.033; bioavailability [15]: 45%
9,inactive,0.6,inactive,inactive,1300 µg/mL,inactive,0.006,1 nM,inactive,2.51 nM,inactive,inactive,COc1nc(F)cnc1NS(=O)(=O)c1cccc(Cl)c1Cl,IC50 [20]: 3.16 nM; bioavailability [21]: 100%; Vd [22]: 0.2 L/kg; clearance [23]: 2.3 mL/min/kg; half-life [24]: 0.5 h; clearance [25]: 3.7 mL/min/kg; Stability (Hepatocyte): < 1 uL/ml; bioavailability [26]: 100%; IC50 [27]: 3.98 nM; Vd [28]: 0.2 L/kg; half-life [29]: 2.5 h; Activity [30]: inactive; logP [31]: 3.1
